The source of these data is patent publication US9730940B2, “Purine inhibitors of human phosphatidylinositol 3-kinase delta” (priority 2012, dated 2017).

Molecules are shown by their SMILES.

For this assay, the target named is PI3K-alpha (Homo sapiens (Human), UniProt P42336). In words: HTRF PI3K biochemical assay, alpha isoform. Conditions: ratio PI3K-alpha IC50 value/PI3K-delta IC50 value. (Time-resolved FRET reads energy transfer from a long-lived donor to a nearby acceptor.)
PI3K-alpha, sequence (P42336 whole entry, looked up, canonical isoform): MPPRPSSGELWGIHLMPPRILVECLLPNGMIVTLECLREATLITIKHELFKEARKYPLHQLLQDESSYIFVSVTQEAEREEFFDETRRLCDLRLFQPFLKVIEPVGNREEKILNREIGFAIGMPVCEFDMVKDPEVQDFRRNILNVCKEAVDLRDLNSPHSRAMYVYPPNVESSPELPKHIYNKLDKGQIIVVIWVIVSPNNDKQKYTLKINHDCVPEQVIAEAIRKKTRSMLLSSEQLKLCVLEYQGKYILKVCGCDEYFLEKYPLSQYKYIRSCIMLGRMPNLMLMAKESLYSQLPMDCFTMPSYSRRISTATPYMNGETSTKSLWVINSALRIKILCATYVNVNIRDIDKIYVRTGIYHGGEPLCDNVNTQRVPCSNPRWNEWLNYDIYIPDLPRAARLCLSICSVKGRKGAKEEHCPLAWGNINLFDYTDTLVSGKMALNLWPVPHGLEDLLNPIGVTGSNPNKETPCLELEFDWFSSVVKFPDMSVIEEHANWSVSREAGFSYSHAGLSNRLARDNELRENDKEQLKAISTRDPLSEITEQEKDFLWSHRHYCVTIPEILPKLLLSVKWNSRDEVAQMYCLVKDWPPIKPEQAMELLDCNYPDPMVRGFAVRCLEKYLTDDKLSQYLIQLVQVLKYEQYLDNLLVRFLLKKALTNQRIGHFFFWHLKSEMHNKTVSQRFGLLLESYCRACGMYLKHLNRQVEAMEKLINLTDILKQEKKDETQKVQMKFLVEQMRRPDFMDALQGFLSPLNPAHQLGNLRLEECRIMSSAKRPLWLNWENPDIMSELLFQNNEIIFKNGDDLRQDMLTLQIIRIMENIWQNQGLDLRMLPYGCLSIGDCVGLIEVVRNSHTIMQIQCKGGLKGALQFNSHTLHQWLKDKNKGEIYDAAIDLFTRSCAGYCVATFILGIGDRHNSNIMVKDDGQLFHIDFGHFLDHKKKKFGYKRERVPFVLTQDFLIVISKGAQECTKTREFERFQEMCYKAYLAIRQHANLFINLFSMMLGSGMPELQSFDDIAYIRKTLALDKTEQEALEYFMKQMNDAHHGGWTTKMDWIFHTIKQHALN
PI3K-alpha, sequence (P27986 whole entry partner, looked up, canonical isoform): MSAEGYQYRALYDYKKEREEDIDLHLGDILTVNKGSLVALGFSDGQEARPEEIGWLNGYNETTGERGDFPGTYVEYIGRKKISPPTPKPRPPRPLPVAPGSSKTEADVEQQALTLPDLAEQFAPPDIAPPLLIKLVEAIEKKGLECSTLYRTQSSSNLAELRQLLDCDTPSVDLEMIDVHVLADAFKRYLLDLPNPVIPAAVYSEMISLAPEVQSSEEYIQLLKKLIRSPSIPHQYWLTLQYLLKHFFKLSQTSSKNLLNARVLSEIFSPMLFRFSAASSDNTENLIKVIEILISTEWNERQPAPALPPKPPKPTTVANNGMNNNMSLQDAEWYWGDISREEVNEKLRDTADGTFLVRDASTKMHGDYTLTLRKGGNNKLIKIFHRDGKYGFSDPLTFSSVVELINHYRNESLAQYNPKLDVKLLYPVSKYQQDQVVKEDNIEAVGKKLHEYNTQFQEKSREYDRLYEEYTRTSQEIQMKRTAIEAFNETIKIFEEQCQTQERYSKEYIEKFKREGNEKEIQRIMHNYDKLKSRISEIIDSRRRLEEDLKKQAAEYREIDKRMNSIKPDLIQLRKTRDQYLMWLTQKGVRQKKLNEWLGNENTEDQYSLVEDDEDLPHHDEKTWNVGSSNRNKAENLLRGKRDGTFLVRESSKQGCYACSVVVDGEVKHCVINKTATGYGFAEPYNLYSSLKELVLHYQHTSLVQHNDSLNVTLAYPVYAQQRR

With `CCn1c(-c2cnc(C)nc2)nc2c(O[C@H]3CCN(C(=O)OCCN(C)C)C3)ncnc21` [Compound 1-49, 2-(dimethylamino)ethyl (3S)-3-{[9-ethyl-8-(2-methylpyrimidin-5-yl)-9H-purin-6-yl]oxy}pyrrolidine-1-carboxylate], the “Relative Selectivity versus PI3Kalpha” value was over 10.

On to `CCC1CN(C(=O)C2CC2)C[C@H]1Oc1ncnc2c1nc(-c1cnc(C)nc1)n2CC` (single isomer, unassigned) [Compound 3-47, [3R,4S or 3S,4R]-6-{[1-(cyclopropylcarbonyl)-4-ethylpyrrolidin-3-yl]oxy}-9-ethyl-8-(2-methylpyrimidin-5-yl)-9H-purine], for which the “Relative Selectivity versus PI3Kalpha” value is given as over 10.

`CCn1ncc(-c2nc3c(O[C@H]4CCN(C(=O)c5ccc(N6CCN(C)CC6)cc5)C4)ncnc3n2C)c1C` [Compound 2-21, 8-(1-ethyl-5-methyl-1H-pyrazol-4-yl)-9-methyl-6-{[(3S)-1-{[4-(4-methylpiperazin-1-yl)phenyl]carbonyl}pyrrolidin-3-yl]oxy}-9H-purine]: the “Relative Selectivity versus PI3Kalpha” value came to 1.

On to `CCC(=O)N1CC[C@H](S(=O)(=O)c2ncnc3c2nc(-c2cnn(CC)c2C)n3C)C1` [Compound 10-6, (S)-1-(3-((8-(1-ethyl-5-methyl-1H-pyrazol-4-yl)-9-methyl-9H-purin-6-yl)sulfonyl)pyrrolidin-1-yl)propan-1-one], for which the “Relative Selectivity versus PI3Kalpha” value is given as 5.

As to `CCn1c(-c2cnc(OC)c(C#N)c2)nc2c(O[C@H]3CCN(C(=O)C4CC4)C3)ncnc21` [Compound 3-42, 5-(6-{[(3S)-1-(cyclopropylcarbonyl)pyrrolidin-3-yl]oxy}-9-ethyl-9H-purin-8-yl)-2-methoxypyridine-3-carbonitrile], the “Relative Selectivity versus PI3Kalpha” value is over 10.

As for `CCn1ncc(-c2nc3c(OC4CCN(C(=O)COC)C4)ncnc3n2C)c1C` (stereo not shown) [Compound 2-5, 8-(1-ethyl-5-methyl-1H-pyrazol-4-yl)-6-{[1-(methoxyacetyl)pyrrolidin-3-yl]oxy}-9-methyl-9H-purine], the “Relative Selectivity versus PI3Kalpha” value is listed as over 10.

In the case of `CCOC(=O)N1CC[C@H](Oc2ncnc3c2nc(-c2cnn(CC)c2C)n3C)C1` [Compound 1-37, ethyl (3S)-3-{[8-(1-ethyl-5-methyl-1H-pyrazol-4-yl)-9-methyl-9H-purin-6-yl]oxy}pyrrolidine-1-carboxylate], the “Relative Selectivity versus PI3Kalpha” value is reported as over 10.

As to `CCC(=O)N1CC[C@H](Oc2ncnc3c2nc(-c2ccc(OC)c(C(F)(F)F)c2)n3C)C1` [Compound 3-35, 8-[4-methoxy-3-(trifluoromethyl)phenyl]-9-methyl-6-{[(3S)-1-propanoylpyrrolidin-3-yl]oxy}-9H-purine], the “Relative Selectivity versus PI3Kalpha” value is listed as over 10.

Consider `CCn1c(-c2cnc(C)nc2)nc2c(O[C@H]3CCN(C(=O)[C@@H]4CN5CC[C@H]4C5)C3)ncnc21` [Compound 2-104, 6-({(3S)-1-[(3S,4R)-1-azabicyclo[2.2.1]hept-3-ylcarbonyl]pyrrolidin-3-yl}oxy)-9-ethyl-8-(2-methylpyrimidin-5-yl)-9H-purine], for which the “Relative Selectivity versus PI3Kalpha” value is listed as over 10.

In the case of `CCn1c(-c2cnc(C)nc2)nc2c(O[C@H]3C[C@@H](NC(=O)OC(C)(C)C)C3)ncnc21` [Compound 9-5, tert-butyl (cis-3-{[9-ethyl-8-(2-methylpyrimidin-5-yl)-9H-purin-6-yl]oxy}cyclobutyl)carbamate], the “Relative Selectivity versus PI3Kalpha” value was over 10.

Take `CCn1c(-c2cnc(C)nc2)nc2c(O[C@H]3CC[C@@H](NC(=O)C4CC4)CC3)ncnc21` [Compound 9-8, N-(cis-4-{[9-ethyl-8-(2-methylpyrimidin-5-yl)-9H-purin-6-yl]oxy}cyclohexyl)cyclopropane carboxamide]: the “Relative Selectivity versus PI3Kalpha” value is over 10.

Turning to `CCn1c(-c2cnc(OC)c(F)c2)nc2c(O[C@H]3CCN(C(=O)c4ccn(C)n4)C3)ncnc21` [Compound 3-57, 9-ethyl-8-(5-fluoro-6-methoxypyridin-3-yl)-6-({(3S)-1-[(1-methyl-1H-pyrazol-3-yl)carbonyl]pyrrolidin-3-yl}oxy)-9H-purine], the “Relative Selectivity versus PI3Kalpha” value was over 10.

Turning to `CCn1ncc(-c2nc3c(S[C@H]4CCN(C(=O)c5ccn(C)n5)C4)ncnc3n2C)c1C` [Compound 10-10, (S)-(3-((8-(1-ethyl-5-methyl-1H-pyrazol-4-yl)-9-methyl-9H-purin-6-yl)thio)pyrrolidin-1-yl)(1-methyl-1H-pyrazol-3-yl)methanone], the “Relative Selectivity versus PI3Kalpha” value is listed as over 10.

Take `CCn1ncc(-c2nc3c(OC4CCN(C(=O)C5CCOCC5)CC4)ncnc3n2C)c1C` [Compound 2-11, (4-((8-(1-ethyl-5-methyl-1H-pyrazol-4-yl)-9-methyl-9H-purin-6-yl)oxy)piperidin-1-yl)(tetrahydro-2H-pyran-4-yl)methanone]: the “Relative Selectivity versus PI3Kalpha” value is recorded as 2.

Turning to `CCn1ncc(-c2nc3c(S(=O)(=O)[C@H]4CCN(C(=O)C5CCOCC5)C4)ncnc3n2C)c1C` [Compound 10-5, (S)-(3-((8-(1-ethyl-5-methyl-1H-pyrazol-4-yl)-9-methyl-9H-purin-6-yl)sulfonyl)pyrrolidin-1-yl)(tetrahydro-2H-pyran-4-yl)methanone], the “Relative Selectivity versus PI3Kalpha” value was determined as 5.

For `CCn1ncc(-c2nc3c(O[C@H]4CCN(C(=O)C5CCOCC5)C4)ncnc3n2C)c1C` [Compound 2-8, (S)-(3-((8-(1-ethyl-5-methyl-1H-pyrazol-4-yl)-9-methyl-9H-purin-6-yl)oxy)pyrrolidin-1-yl)(tetrahydro-2H-pyran-4-yl)methanone], the “Relative Selectivity versus PI3Kalpha” value is given as over 10.

Regarding `CCn1c(C(=O)NCC(F)(F)F)nc2c(O[C@H]3CCN(C(=O)OC(C)(C)C)C3)ncnc21` [Compound 15-1, tert-butyl (3S)-3-({9-ethyl-8-[(2,2,2-trifluoroethyl)carbamoyl]-9H-purin-6-yl}oxy)pyrrolidine-1-carboxylate], the “Relative Selectivity versus PI3Kalpha” value is over 10.

For `CCn1c(-c2cnc(C)nc2)nc2c(O[C@H]3CCN(C(=O)N4C5CCC4CC5)C3)ncnc21` [Compound 5-24], the “Relative Selectivity versus PI3Kalpha” value was over 10.

Consider `CCn1ncc(-c2nc3c(O[C@H]4CCN(CC5CCCCC5)C4)ncnc3n2C)c1C` [Compound 6-2, 6-{[(3S)-1-(cyclohexylmethyl)pyrrolidin-3-yl]oxy}-8-(1-ethyl-5-methyl-1H-pyrazol-4-yl)-9-methyl-9H-purine], for which the “Relative Selectivity versus PI3Kalpha” value is over 10.

For `CCn1c(-c2cnc(C)nc2)nc2c(O[C@H]3CCN(C(=O)[C@@H](N)C(C)C)C3)ncnc21` [Compound 2-111, (2S)-1-[(3S)-3-{[9-ethyl-8-(2-methylpyrimidin-5-yl)-9H-purin-6-yl]oxy}pyrrolidin-1-yl]-3-methyl-1-oxobutan-2-amine], the “Relative Selectivity versus PI3Kalpha” value is given as over 10.

For the molecule `CCn1c(-c2cnc(N)c(C(F)(F)F)c2)nc2c(O[C@H]3CCN(C(=O)C4CC4)C3)ncnc21` [Compound 3-44, 5-(6-{[(3S)-1-(cyclopropylcarbonyl)pyrrolidin-3-yl]oxy}-9-ethyl-9H-purin-8-yl)-3-(trifluoromethyl)pyridin-2-amine], the “Relative Selectivity versus PI3Kalpha” value is given as over 10.

`CCn1c(-c2cnc(C)nc2)nc2c(O[C@H]3CCN(C(=O)C4CC4CO)C3)ncnc21` (single isomer, unassigned) [Compound 2-131, (1S,2S)- or (1R,2R)-{[(3S)-3-{[9-ethyl-8-(2-methylpyrimidin-5-yl)-9H-purin-6-yl]oxy}pyrrolidin-1-yl]carbonyl}cyclopropyl)methanol]: the “Relative Selectivity versus PI3Kalpha” value is recorded as over 10.
